# System: superoxide dismutase (SOD)
# Experiment: Influence of small-molecule substances on SOD enzyme activity and thermal stability at 80° C.
# Assay type: biochemical
# Settings: experimental group 1: 100 μL SOD solution (1×10^−4 mol/L) + 100 μL substance solution (1×10^−3 mol/L); water bath 80° C., 4 hours, enzyme activity every 20 minutes; vs SOD blank control; FIG. 1
# Experimental: SOD solution: Mr(SOD)=37.8 kDa, 37.8 mg of SOD was weighed and dissolved in 10 mL of phosphate buffer to obtain a stock solution of CSOD=1×10^−4 mol/L.
# Experimental group 1: 100 μL of the SOD solution was taken out and added to each of […] 10 mL centrifuge tubes, and then 100 μL of the solution of each of the vitamin C, the vitamin p, the catechin, the quercetin, the myricetin, the kaempherol, the ellagic acid, and the ferulic acid was added to each of the […] centrifuge tubes. Another 100 μL of the SOD solution was taken out as blank control. The centrifuge tubes and the blank control were placed in a water bath at 80° C., incubated for 4 hours, and detected for enzyme activity every 20 minutes. […]
Compound,activity of the SOD,thermal stability of the SOD
"Cc1ncc(C[n+]2csc(CCO)c2C)c(N)n1 [Vb1, vitamin B1, reference compound]",fails to improve the activity and thermal stability of SOD enzymes,fails to improve the activity and thermal stability of SOD enzymes
COc1cc(/C=C/C(=O)O)ccc1O [ferulic acid],improve the activity of the SOD,significantly improve the thermal stability of the SOD
O=c1c(O)c(-c2ccc(O)c(O)c2)oc2cc(O)cc(O)c12 [quercetin],improve the activity of the SOD,significantly improve the thermal stability of the SOD
O=C1O[C@H]([C@@H](O)CO)C(O)=C1O [vitamin C],improve the activity of the SOD,significantly improve the thermal stability of the SOD
catechin,improve the activity of the SOD,significantly improve the thermal stability of the SOD
vitamin P,improve the activity of the SOD,significantly improve the thermal stability of the SOD

# The next lines start with results.
activity of the SOD,Compound,thermal stability of the SOD
improve the activity of the SOD,O=c1oc2c(O)c(O)cc3c(=O)oc4c(O)c(O)cc1c4c23 [ellagic acid],significantly improve the thermal stability of the SOD
improve the activity of the SOD,O=c1c(O)c(-c2ccc(O)cc2)oc2cc(O)cc(O)c12 [kaempherol],significantly improve the thermal stability of the SOD
improve the activity of the SOD,O=c1c(O)c(-c2cc(O)c(O)c(O)c2)oc2cc(O)cc(O)c12 [myricetin],significantly improve the thermal stability of the SOD

# Reference: patent publication US20220202939A1, “PREPARATION FOR IMPROVING ACTIVITY AND/OR THERMAL STABILITY OF SUPEROXIDE DISMUTASE, AND APPLICATION THEREOF” (CHINA AGRICULTURAL UNIVERSITY, priority 2020, published 2022)
